Reference: patent US5994334A, “Androgen synthesis inhibitors” (priority 1997, dated 1999)
Read-outs that look alike come from different tables or passages of the source.

Key:
[1] = target: T1, human 17α-hydroxylase/C17,20-lyase (Homo sapiens, UniProt P05093); assay: Inhibition of human testicular 17α-hydroxylase/C17,20-lyase (enzyme complex as a whole); assay type: biochemical; conditions: NI = no inhibition
T1 construct: incubating human testicular microsomes; from tissue; host or cells: human testis, microsomes
T1 sequence (P05093 1-508): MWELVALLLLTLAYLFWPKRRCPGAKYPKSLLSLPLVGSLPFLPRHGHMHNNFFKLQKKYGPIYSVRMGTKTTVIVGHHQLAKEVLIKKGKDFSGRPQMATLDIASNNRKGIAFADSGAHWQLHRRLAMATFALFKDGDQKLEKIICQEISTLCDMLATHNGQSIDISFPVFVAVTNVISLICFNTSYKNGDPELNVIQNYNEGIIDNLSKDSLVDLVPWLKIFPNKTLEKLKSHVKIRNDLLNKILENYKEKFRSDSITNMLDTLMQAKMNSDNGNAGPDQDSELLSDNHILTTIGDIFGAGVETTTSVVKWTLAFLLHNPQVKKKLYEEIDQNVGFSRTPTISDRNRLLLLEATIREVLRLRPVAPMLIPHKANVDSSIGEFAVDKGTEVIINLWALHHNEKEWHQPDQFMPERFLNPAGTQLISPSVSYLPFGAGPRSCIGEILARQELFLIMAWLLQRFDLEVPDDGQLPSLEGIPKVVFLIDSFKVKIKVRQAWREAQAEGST
Procedure: (§1) The conversion of radiolabeled pregnenolone to 17α-hydroxypregnenolone and DHEA by 17α-hydroxylase/C17,20 -lyase was measured by incubating human testicular microsomes with different concentration of test compounds. Reverse phase HPLC was used to separate and accurately quantify the amount of substrate and metabolites. The 17α-hydroxylase and C17,20 -lyase activities were calculated separately. The activity of 17α-hydroxylase was calculated from the conversion of pregnenolone to 17α-hydroxypregnenolone and DHEA and the activity of C17,20 -lyase was based on the conversion of pregnenolone to DHEA. Although 17α-hydroxypregnenolone is the substrate converted to DHEA by C17,20 -lyase, it has been reported that this 17α-hydroxy intermediate is not released from the enzyme binding site during conversion (Nakajin et al., 1981a,b). Also, there are species differences in substrate requirements. Pregnenolone is the natural substrate rather than progesterone for human testicular 17α-hydroxylase and C17,20 -lyase. Therefore, pregnenolone was used as substrate for measuring the activity of this enzyme complex.

[2] = target: T2, Human Testicular 17α-Hydroxylase (Homo sapiens, UniProt P05093); assay: Inhibition of human testicular 17α-hydroxylase (pregnenolone substrate, testicular microsomes); assay type: biochemical; conditions: for inhibition at 0.1 µM: read-out: % Inhibition 17α-hydroxylase, [I] = 100 nM; for inhibition at 0.4 µM: read-out: % Inhibition 17α-hydroxylase, [I] = 400 nM
T2 construct: incubating human testicular microsomes; from tissue; host or cells: human testis, microsomes
T2 sequence (P05093 1-508): T1 sequence (P05093 1-508)
Procedure: as §1

[3] = target: T3, Human Testicular C17,20-lyase (Homo sapiens, UniProt P05093); assay: Inhibition of human testicular C17,20-lyase (pregnenolone substrate, testicular microsomes); assay type: biochemical; conditions: for inhibition at 0.1 µM: read-out: % Inhibition C17,20-lyase, [I] = 100 nM; for inhibition at 0.4 µM: read-out: % Inhibition C17,20-lyase, [I] = 400 nM
T3 construct: incubating human testicular microsomes; from tissue; host or cells: human testis, microsomes
T3 sequence (P05093 1-508): T1 sequence (P05093 1-508)
Procedure: as §1

[4] = target: T4, Human Prostatic 5α-Reductase (Homo sapiens, UniProt P31213); assay: Inhibition of human prostatic 5α-reductase (prostatic microsomes, [3H]testosterone); conditions: for inhibition at 0.01 µM: read-out: % Inhibition of 5α-reductase, [I] 10 nM; for inhibition at 0.1 µM: read-out: % Inhibition of 5α-reductase, [I] 100 nM; for inhibition at 0.4 µM: read-out: % Inhibition of 5α-reductase, [I] 400 nM
T4 sequence (P31213 1-254): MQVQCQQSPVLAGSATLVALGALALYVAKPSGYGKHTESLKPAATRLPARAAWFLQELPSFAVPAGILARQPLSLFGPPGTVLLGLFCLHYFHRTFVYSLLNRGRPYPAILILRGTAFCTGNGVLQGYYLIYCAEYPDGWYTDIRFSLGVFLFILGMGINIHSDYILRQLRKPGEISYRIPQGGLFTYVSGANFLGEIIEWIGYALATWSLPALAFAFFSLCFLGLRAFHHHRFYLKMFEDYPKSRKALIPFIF

[5] = Table 1, NI = no inhibition, read-out: IC50 17α-OHase
[6] = Table 1, NI = no inhibition, CI = complete inhibition, read-out: IC50 C17,20 lyase
[7] = first figure of pair, read-out: IC50 17α-hydroxylase
[8] = second figure of pair, read-out: IC50 C17,20-lyase

| SMILES | inhibition of 17α-hydroxylase/C17,20-lyase (in words) [1] | IC50 [2, 5] [nM] | IC50 [3, 6] [nM] | inhibition at 0.1 µM [4] [%] | also measured |
| --- | --- | --- | --- | --- | --- |
| CC(=NO)[C@H]1CC[C@H]2[C@@H]3CC=C4C[C@@H](O)CC[C@]4(C)[C@H]3CC[C@]12C [Compound I-1] | potent inhibition | – | – | – | – |
| C[C@@H](N)[C@H]1CC[C@H]2[C@@H]3CC=C4C[C@@H](O)CC[C@]4(C)[C@H]3CC[C@]12C [Compound I-9] | poor inhibition | 89800 | 43900 | – | – |
| C[C@H](N)[C@H]1CC[C@H]2[C@@H]3CC=C4C[C@@H](O)CC[C@]4(C)[C@H]3CC[C@]12C [Compound I-10] | poor inhibition | 9800 | 8000 | – | – |
| CC(=O)[C@@]1(Br)CC[C@H]2[C@@H]3CC=C4C[C@@H](O)CC[C@]4(C)[C@H]3CC[C@@]21C [Compound I-11] | poor inhibition | 1300 | 970 | – | – |
| CC(=NN)[C@H]1CC[C@H]2[C@@H]3CC=C4C[C@@H](O)CC[C@]4(C)[C@H]3CC[C@]12C [Compound I-12] | poor inhibition | – | – | – | – |
| CC(=NN(C)C)C1=CC[C@H]2[C@@H]3CC=C4C[C@@H](O)CC[C@]4(C)[C@H]3CC[C@]12C [Compound I-14] | devoid of inhibitory activity | – | – | – | – |
| C[C@H](C=NN(C)C)[C@H]1CC[C@H]2[C@@H]3CCC4=CC(=O)CC[C@]4(C)[C@H]3CC[C@]12C [Compound I-15] | devoid of inhibitory activity | – | – | 74.9 | inhibition at 0.01 µM [4]: 16.4% |
| CC(=O)[C@@]12O[C@@H]1C[C@H]1[C@@H]3CC=C4C[C@@H](O)CC[C@]4(C)[C@H]3CC[C@@]12C [Compound I-17] | decreased potency | 440 | 680 | – | – |
| CC(=O)[C@@]12O[C@@H]1C[C@H]1[C@@H]3CCC4=CC(=O)CC[C@]4(C)[C@H]3CC[C@@]12C [Compound I-18] | – | 480 | 800 | 76.2 | inhibition at 0.01 µM [4]: 15.1% |
| C[C@H](O)[C@H]1CC[C@H]2[C@@H]3CC=C4C[C@@H](O)CC[C@]4(C)[C@H]3CC[C@]12C [Compound I-19] | – | – | – | – | IC50 ([2]; IC50 17α-OHase): 720 nM; IC50 ([3]; IC50 C17,20 lyase): 510 nM; inhibition of 5α-reductase (in words) ([4]; NI = no inhibition): neither showed activity against 5α-reductase |
| CC(C#N)=C1CC[C@H]2[C@@H]3CCC4=CC(=O)CC[C@]4(C)[C@H]3CC[C@]12C [Compound I-26] | did not contribute to inhibition | – | – | 71.8 | inhibition at 0.01 µM [4]: 5.21% |
| C[C@H](C=O)[C@H]1CC[C@H]2[C@@H]3CC=C4C[C@@H](O)CC[C@]4(C)[C@H]3CC[C@]12C [Compound I-31] | – | 80 | 80 | – | – |
| C[C@H](C#N)[C@H]1CC[C@H]2[C@@H]3CCC4=CC(=O)CC[C@]4(C)[C@H]3CC[C@]12C [Compound I-32] | – | – | – | 79.2 | inhibition at 0.01 µM [4]: 21% |
| CC(=O)O[C@H]1CC[C@@]2(C)C(=CC[C@@H]3[C@@H]2CC[C@]2(C)C(C(C)=O)=CC[C@@H]32)C1 [Compound I-37] | less activity than the 3-hydroxy compound | – | – | – | IC50 ([2]; read-out: IC50 17α-OHase): 1890 nM; IC50 ([3]; read-out: IC50 C17,20 lyase): 1710 nM |
| CN(C=O)[C@H]1CC[C@H]2[C@@H]3CC=C4C[C@@H](O)CC[C@]4(C)[C@H]3CC[C@]12C [Compound I-39] | – | 290 | 280 | – | – |
| C[C@]12CCC(=O)C=C1CC[C@@H]1[C@@H]2CC[C@@]2(C)[C@H]1CC[C@]2(O)c1c[nH]cn1 [Compound I-44] | – | 1200 | 1000 | – | IC50 [2, 7]: 1200 nM; IC50 [3, 8]: 1000 nM |
| C[C@]12CC[C@H](O)CC1=CC[C@@H]1[C@@H]2CC[C@@]2(C)[C@H]1C[C@H]1O[C@]12c1c[nH]cn1 [Compound I-51] | – | 430 | 100 | – | IC50 [2, 7]: 431 nM; IC50 [3, 8]: 98 nM |
| CCOC(=O)C1=CC[C@H]2[C@@H]3CC=C4C[C@@H](O)CC[C@]4(C)[C@H]3CC[C@]12C [Compound I-53] | – | 3040 | 2450 | – | – |
| CN(C)N=C1CC[C@H]2[C@@H]3CC=C4C[C@@H](O)CC[C@]4(C)[C@H]3CC[C@]12C [Compound I-56] | – | 4200 | 2400 | – | – |
| C[C@]12CC[C@H]3[C@@H](CCC4=CC(=O)CC[C@@]43C)[C@@H]1CC[C@@H]2c1ncc[nH]1 [Compound L-3] | – | – | – | 31.7 | inhibition at 0.1 µM ([2]; 100 nM, first figure of pair): 20.3%; inhibition at 0.4 µM ([2]; 400 nM, first figure of pair): 43.5%; inhibition at 0.1 µM ([3]; 100 nM, second figure of pair): 62.9%; inhibition at 0.4 µM ([3]; 400 nM, second figure of pair): 100%; inhibition at 0.4 µM [4]: 61.7% |
| C[C@]12CC[C@H]3[C@@H](CC=C4C[C@@H](O)CC[C@@]43C)[C@@H]1CC[C@@H]2c1c[nH]c(-c2ccccc2)n1 [Compound L-7] | – | – | – | – | inhibition at 0.1 µM ([2]; 100 nM, first figure of pair): 10.3%; inhibition at 0.4 µM ([2]; 400 nM, first figure of pair): 20.9%; inhibition at 0.1 µM ([3]; 100 nM, second figure of pair): 9.5%; inhibition at 0.4 µM ([3]; 400 nM, second figure of pair): 33.8% |
| C[C@H](O)C1=CC[C@H]2[C@@H]3CC=C4C[C@@H](O)CC[C@]4(C)[C@H]3CC[C@]12C [Compound L-9] | less active | – | – | – | inhibition at 0.01 µM [4]: 33.2% |
| C=C1CC2C3CCC(OC(C)=O)C3(C)CCC2C2(C)CCC(=O)CC12 [Compound L-14, 17β-Acetoxy-6-methylene-5α-androst-3-one] | – | – | – | 5.77 | inhibition at 0.4 µM [4]: 11.4% |
| C[C@]12CC[C@H]3[C@@H](CC[C@]45CC(=O)C=C[C@]34C5)[C@@H]1CCC2=O [Compound L-15, 5,19β-cycloandrost-1-ene-3,17-dione] | – | – | – | 23.3 | inhibition at 0.1 µM ([2]; 100 nM, first figure of pair): 7.25%; inhibition at 0.1 µM ([3]; 100 nM, second figure of pair): 28.8%; inhibition at 0.4 µM [4]: 60.9% |
| C[C@]12CC[C@H]3[C@@H](CC[C@]45CC(=O)CC[C@]34[C@H]5O)[C@@H]1CC[C@@H]2O [Compound L-19, 17β,19(S)-dihydroxy 5,19β-cycloandrost-3-one] | – | – | – | 8.7 | inhibition at 0.4 µM [4]: 14.8% |
| C[C@]12CC[C@H]3[C@@H](CC[C@]45CC(=O)CC[C@]34[C@@H]5O)[C@@H]1CCC2=O [Compound L-20, 19(R)-Hydroxy-5,19β-cyclo-androst-3,17-dione] | – | – | – | 5.89 | inhibition at 0.4 µM [4]: 12.2% |
| CC1N[C@@]12CC[C@H]1[C@@H]3CC=C4C[C@@H](O)CC[C@]4(C)[C@H]3CC[C@@]12C (stereo partly drawn) [Compound L-21] | – | – | – | – | inhibition at 0.1 µM [2]: 8.47%; inhibition at 0.4 µM [2]: 23.7%; inhibition at 0.1 µM [3]: 29.1%; inhibition at 0.4 µM [3]: 52% |
| CC1N[C@]12CC[C@H]1[C@@H]3CC=C4C[C@@H](O)CC[C@]4(C)[C@H]3CC[C@@]12C (stereo partly drawn) [Compound L-22] | – | – | – | – | inhibition at 0.1 µM [2]: 0%; inhibition at 0.4 µM [2]: 0%; inhibition at 0.1 µM [3]: 3.33%; inhibition at 0.4 µM [3]: 9.99% |
| CO[C@@H]1[C@]23CC[C@@H]4[C@H](CC[C@]5(C)C(=O)CC[C@@H]45)[C@]12CCC(=O)[C@H]3C [Compound L-23, 4α-methyl-19-(S)-methoxy-5,19β-cycloandrost-3,17-dione] | – | – | – | 0 | inhibition at 0.4 µM [4]: 16.1% |
| C[C@]12CC[C@H]3[C@@H](CCC4=CC(=O)CC[C@@]43CBr)[C@@H]1CCC2=O [Compound L-24, 19-Bromo-androst-4-ene-3,17-dione] | – | – | – | 12.3 | inhibition at 0.4 µM [4]: 52.7% |
